Test results published in PubChem BioAssay AID330 (DTP/NCI, 2004).
Values joined by “and” are separate entries in the source; they are usually repeats but may differ in a detail not shown here. Equal values may be shown once. Inconclusive results and toxic doses are left out.

System: P388 leukemia ip, CD2F1 mice, survival T/C
Test: NCI In Vivo Anticancer Drug Screen. Data for tumor model P388 Leukemia (intraperitoneal) in CD2F1 (CDF1) mice
Settings: endpoint: median survival time, higher = longer survival
Outline: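 Mice carrying the transplanted tumor received test compound or vehicle. Survival was recorded in each group, and the value is the treated-group measurement divided by that of the vehicle-treated control group.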

[1] = dose: 50.0 mg/kg/injection, schedule: Q01DX005 (ip), vehicle: saline with Tween-80
[2] = dose: 100.0 mg/kg/injection, schedule: Q01DX005 (ip), vehicle: saline with Tween-80
[3] = dose: 200.0 mg/kg/injection, schedule: Q01DX005 (ip), vehicle: saline with Tween-80
[4] = dose: 50.0 mg/kg/injection, schedule: Q01DX005 (ip), vehicle: Klucel (hydroxypropylcellulose) (HPC)
[5] = dose: 100.0 mg/kg/injection, schedule: Q01DX005 (ip), vehicle: Klucel (hydroxypropylcellulose) (HPC)
[6] = dose: 50.0 mg/kg/injection, schedule: Q01DX009 (ip), vehicle: saline with Tween-80
[7] = dose: 100.0 mg/kg/injection, schedule: Q01DX009 (ip), vehicle: saline with Tween-80
[8] = dose: 50.0 mg/kg/injection, schedule: Q01DX009 (ip), vehicle: Klucel (hydroxypropylcellulose) (HPC)
[9] = dose: 100.0 mg/kg/injection, schedule: Q01DX009 (ip), vehicle: Klucel (hydroxypropylcellulose) (HPC)

CCOC(=O)C(=O)Nc1c(C(C)=O)cc(C)c(C)c1C#N
T/C (dose: 50.0 mg/kg/injection, schedule: Q01DX009 (ip), vehicle: saline + alcohol): 92 % of control
T/C (dose: 100.0 mg/kg/injection, schedule: Q01DX009 (ip), vehicle: saline + alcohol): 97 % of control
T/C (dose: 200.0 mg/kg/injection, schedule: Q01DX009 (ip), vehicle: saline + alcohol): 96 % of control

COc1ccc2c(c1OC)Oc1c(OC)ccc3c1C(C2)N(C)C[C@@H]3O (stereo partly drawn)
T/C (dose: 5.75 mg/kg/injection, schedule: Q01DX005 (ip), vehicle: Klucel (hydroxypropylcellulose) (HPC)): 103 % of control
T/C (dose: 11.5 mg/kg/injection, schedule: Q01DX005 (ip), vehicle: Klucel (hydroxypropylcellulose) (HPC)): 109 % of control
T/C (dose: 23.0 mg/kg/injection, schedule: Q01DX005 (ip), vehicle: Klucel (hydroxypropylcellulose) (HPC)): 100 % of control
T/C (dose: 46.0 mg/kg/injection, schedule: Q01DX005 (ip), vehicle: Klucel (hydroxypropylcellulose) (HPC)): 99 % of control

CN(C)CCCN1CC2CC=CCC2C1 (stereo not drawn)
T/C (dose: 50.0 mg/kg/injection, schedule: Q01DX005 (ip), vehicle: saline): 99 % of control
T/C (dose: 100.0 mg/kg/injection, schedule: Q01DX005 (ip), vehicle: saline): 99 % of control
T/C (dose: 200.0 mg/kg/injection, schedule: Q01DX005 (ip), vehicle: saline): 100 % of control

CC(=O)[C@H]1[C@H](O)C[C@H]2[C@@H]3CCC4=CC(=O)CC[C@]4(C)[C@@]3(F)[C@@H](O)C[C@@]21C
T/C (dose: 100.0 mg/kg/injection, schedule: Q01DX009 (ip), vehicle: saline): 120 % of control
T/C (dose: 200.0 mg/kg/injection, schedule: Q01DX009 (ip), vehicle: saline): 95 % of control

COC(=O)c1cc(O)c2c(c1C(=O)OC)C[C@H]1[C@@H]3CC=C4C[C@@H](O)CC[C@]4(C)[C@H]3CC[C@]21C
T/C [1]: 97 % of control
T/C [2]: 87 % of control
T/C [3]: 87 % of control

CC[N+](C)(CC)CCSC1=Nc2ccccc2N=C(c2ccc(Sc3ccccc3)cc2)C1
T/C (dose: 1.56 mg/kg/injection, schedule: Q01DX009 (ip), vehicle: Klucel (hydroxypropylcellulose) (HPC)): 117 % of control
T/C (dose: 3.12 mg/kg/injection, schedule: Q01DX009 (ip), vehicle: Klucel (hydroxypropylcellulose) (HPC)): 99 % of control
T/C (dose: 6.25 mg/kg/injection, schedule: Q01DX009 (ip), vehicle: Klucel (hydroxypropylcellulose) (HPC)): 106 % of control and 108 % of control

Cc1c2occc2cc2c1oc(=O)c1cnccc12
T/C [4]: 105 % of control
T/C [5]: 100 % of control
T/C (dose: 200.0 mg/kg/injection, schedule: Q01DX005 (ip), vehicle: Klucel (hydroxypropylcellulose) (HPC)): 98 % of control

COc1cc(C(O)Cc2ccccc2)cc(OC)c1OC (stereo not drawn)
T/C (dose: 31.25 mg/kg/injection, schedule: Q01DX009 (ip), vehicle: saline + Tween-80 + alcohol): 98 % of control
T/C (dose: 62.5 mg/kg/injection, schedule: Q01DX009 (ip), vehicle: saline + Tween-80 + alcohol): 109 % of control
T/C (dose: 125.0 mg/kg/injection, schedule: Q01DX009 (ip), vehicle: saline + Tween-80 + alcohol): 91 % of control
T/C (dose: 250.0 mg/kg/injection, schedule: Q01DX009 (ip), vehicle: saline + Tween-80 + alcohol): 89 % of control

O=C(Nc1ccccc1)OCc1ccc(OCc2ccccc2)cc1
T/C (dose: 25.0 mg/kg/injection, schedule: Q01DX009 (ip), vehicle: saline with Tween-80): 107 % of control and 94 % of control
T/C [6]: 110 % of control and 95 % of control
T/C [7]: 104 % of control and 89 % of control
T/C (dose: 200.0 mg/kg/injection, schedule: Q01DX009 (ip), vehicle: saline with Tween-80): 95 % of control

CCn1c(=NC(=O)c2ccccc2O)sc2ccccc21
T/C (dose: 100.0 mg/kg/injection, schedule: Q01DX001 (ip), vehicle: saline): 98 % of control and 95 % of control
T/C (dose: 200.0 mg/kg/injection, schedule: Q01DX001 (ip), vehicle: saline): 103 % of control and 95 % of control
T/C (dose: 400.0 mg/kg/injection, schedule: Q01DX001 (ip), vehicle: saline): 100 % of control and 103 % of control

O=C(c1cccs1)c1ccc(Cl)cc1Cl
T/C [8]: 107 % of control
T/C [9]: 103 % of control
T/C (dose: 200.0 mg/kg/injection, schedule: Q01DX009 (ip), vehicle: Klucel (hydroxypropylcellulose) (HPC)): 104 % of control

C[C@H](CCC(=O)O)[C@H]1CC[C@H]2[C@@H]3[C@H](O)C[C@@H]4C[C@H](O)CC[C@]4(C)[C@H]3C[C@H](O)[C@]12C (tested in a mixture with another compound)
T/C (dose: 75.0 mg/kg/injection, schedule: Q01DX009 (ip), vehicle: saline sonified): 104 % of control
T/C (dose: 300.0 mg/kg/injection, schedule: Q01DX009 (ip), vehicle: saline sonified): 163 % of control

COc1cc(/C=C/C(=O)c2ccccc2O)cc(OC)c1OC
T/C [1]: 97 % of control
T/C [2]: 110 % of control
T/C [3]: 97 % of control

NC(=O)CCBr
T/C [6]: 101 % of control
T/C [7]: 97 % of control

CCCCCCC(C)OC(=O)OCCOCCOC(=O)OC(C)C(=O)OCCCC (stereo not drawn)
T/C (dose: 60.0 mg/kg/injection, schedule: Q01DX005 (ip), vehicle: saline): 100 % of control
T/C (dose: 120.0 mg/kg/injection, schedule: Q01DX005 (ip), vehicle: saline): 94 % of control
T/C (dose: 240.0 mg/kg/injection, schedule: Q01DX005 (ip), vehicle: saline): 100 % of control

C/C=C(\C)C(=O)N/N=C\C=C\c1ccccc1
T/C (dose: 25.0 mg/kg/injection, schedule: Q01DX005 (ip), vehicle: Klucel (hydroxypropylcellulose) (HPC)): 89 % of control
T/C [4]: 92 % of control
T/C [5]: 89 % of control

COc1cc(N)ccc1Nc1c2ccccc2nc2ccccc12
T/C (dose: 12.5 mg/kg/injection, schedule: Q04DX002 (ip), vehicle: distilled water + Tween-80): 117 % of control
T/C (dose: 50.0 mg/kg/injection, schedule: Q04DX002 (ip), vehicle: distilled water + Tween-80): 165 % of control
T/C (dose: 100.0 mg/kg/injection, schedule: Q04DX002 (ip), vehicle: distilled water + Tween-80): 166 % of control and 185 % of control
T/C (dose: 200.0 mg/kg/injection, schedule: Q04DX002 (ip), vehicle: distilled water + Tween-80): 194 % of control

CC(=O)OCN1C(=O)N(COC(C)=O)C(c2ccccc2)(c2ccccc2)C1=O
T/C (dose: 60.0 mg/kg/injection, schedule: Q01DX005 (ip), vehicle: Klucel (hydroxypropylcellulose) (HPC)): 104 % of control
T/C (dose: 120.0 mg/kg/injection, schedule: Q01DX005 (ip), vehicle: Klucel (hydroxypropylcellulose) (HPC)): 105 % of control
T/C (dose: 240.0 mg/kg/injection, schedule: Q01DX005 (ip), vehicle: Klucel (hydroxypropylcellulose) (HPC)): 103 % of control

CN(C(=O)C(F)(F)F)[Si](C)(C)C
T/C [1]: 100 % of control
T/C [2]: 105 % of control
T/C [3]: 95 % of control

C[N+]1(C)CC=CCC1c1ccccc1 (stereo not drawn)
T/C (dose: 6.25 mg/kg/injection, schedule: Q01DX005 (ip), vehicle: saline): 104 % of control
T/C (dose: 12.5 mg/kg/injection, schedule: Q01DX005 (ip), vehicle: saline): 105 % of control
T/C (dose: 25.0 mg/kg/injection, schedule: Q01DX005 (ip), vehicle: saline): 98 % of control

N#CCc1nc2ccccc2s1
T/C (dose: 30.0 mg/kg/injection, schedule: Q01DX005 (ip), vehicle: saline with Tween-80): 102 % of control
T/C (dose: 60.0 mg/kg/injection, schedule: Q01DX005 (ip), vehicle: saline with Tween-80): 107 % of control
T/C (dose: 120.0 mg/kg/injection, schedule: Q01DX005 (ip), vehicle: saline with Tween-80): 102 % of control

Nc1cc2c(c[n+](Cc3ccccc3)c3ccccc23)c2ccccc12
T/C (dose: 0.2 mg/kg/injection, schedule: Q04DX003 (ip), vehicle: water): 105 % of control
T/C (dose: 0.39 mg/kg/injection, schedule: Q04DX003 (ip), vehicle: water): 102 % of control
T/C (dose: 0.78 mg/kg/injection, schedule: Q04DX003 (ip), vehicle: water): 102 % of control
T/C (dose: 1.56 mg/kg/injection, schedule: Q04DX003 (ip), vehicle: water): 105 % of control

O=S(=O)(Nc1cc2ccccc2cc1NS(=O)(=O)N1CCCCC1)N1CCCCC1
T/C [8]: 93 % of control
T/C [9]: 89 % of control

COc1cccc(C(=O)NC[n+]2ccccc2)c1
T/C (dose: 25.0 mg/kg/injection, schedule: Q04DX003 (ip), vehicle: saline): 100 % of control
T/C (dose: 50.0 mg/kg/injection, schedule: Q04DX003 (ip), vehicle: saline): 100 % of control
T/C (dose: 100.0 mg/kg/injection, schedule: Q04DX003 (ip), vehicle: saline): 109 % of control
